In ChEMBL document CHEMBL1933035, “Discovery of pyrrolidine-based β-secretase inhibitors: lead advancement through conformational design for maintenance of ligand binding efficiency” (Bioorg Med Chem Lett, 2012):

Experiments:
[1] = Clearance in rat at 2 mg/kg, iv; type: ADME, organism-based; set-up: dose 2 mg/kg, route intravenous; conditions: in vivo
[2] = Oral bioavailability in rat at 10 mg/kg; type: ADME, organism-based; conditions: in vivo

- clearance [1]: 15 mL/min/kg
- bioavailability [2]: 44%
SMILES: O=C([C@@H]1CNC[C@]12CCCc1nc(Cl)ccc12)N1CC[C@@H](c2ccccc2)C[C@H]1C1CCCCC1
